Results: patent EP0421199A2, “(+)-(2-Hydroxy)-2-adamantyl)-1-imidazolyl-3-tolyl-methane and its salts, process for its preparation, medicine containing this compound and its use” (HOECHST AKTIENGESELLSCHAFT, priority 1989, dated 1991)
pIC50: −log10 of the molar value. Several values for one entry are separate records, joined by “and”; a condition that tells them apart may be missing. Identical values can stand only once. Like-named read-outs stand apart in the source and are kept apart here.

What was measured:
Stereotypien = test: Induction of stereotypies in rats (Methode 3); assay type: in vivo; conditions: Methode 3, rat, p.o.; dose up to which no stereotypies were seen
Excerpt: Die Versuche wurden an Wistar-Ratten, männlich, 130-140 g durchgeführt. Die Stereotypien wurden in den ersten beiden Stunden nach Substanzgabe in 15-Minuten-Intervallen beurteilt, danach bis zur 6. Stunde in halbstündigen Intervallen. Die folgende Skala wurde benutzt.
Die Punktzahlen wurden errechnet alß Gesamtzahl pro 6 Stunden, dividiert durch die Zahl der Beobachtungen.
Der EDso-Wert ist die Dosis, bei der die Hälfte der maximal möglichen Punktzahl (5 Punkte multipliziert mit der Zahl der Beobachtungen) erreicht wird.

Yohimbin-Toxizität = test: Potentiation of yohimbine toxicity in mice (Methode 2); assay type: in vivo, Maus; conditions: Methode 2, mouse; for LD50, mg/kg p.o.: 1 h before yohimbine hydrochloride 20 mg/kg s.c., deaths after 18 h
Description: Die Toxizität von Yohimbin, einem Blocker präsynaptischer alpha-Rezeptoren, wird durch Antidepressiva potenziert (Literatur R.M. Quinton, Brit. J. Pharmac. 21 , 55-56 (1963)). Männliche Mäuse, NMRI-Stamm, 20-22 g, wurden in Versuchsgruppen zu n = 10 zugeordnet. Das Prüfpräparat wurde in 1 %igem wäßrigen Tylose@-Schleim suspendiert und im Volumen 10 ml/kg oral gegeben. Kontrollen erhielten nur das Vehikel.
Nach einer Vorbehandlungszeit von 1 Stunde erhielten alle Tiere eine allein nicht toxische Dosis von Yohimbin-Hydrochlorid, 20 mg/kg subkutan. Die verstorbenen Tiere wurden 18 Stunden nach dieser Behandlung ermittelt. (Berechnung der LDso mit Probit-Analyse).

Tetrabenazin-Ptosis = test: Effect on tetrabenazine ptosis (TBZ method, Methode 1); assay type: in vivo, Maus; conditions: for ED50: Mus musculus
Description: Sechs männl. Tieren wird die entsprechende Menge eines Homogenats der jeweiligen Substanz in wäßriger Carboxymethylcellulose oder Methyl-hydroxyethylcellulose 30 Min. vor der Behandlung mit Tetrabenazin (40 mg/kg intraperitoneal) mit Schlundsonde gefüttert. […]

[1] = system: Aufnahme von 14C-Noradrenalin in Synaptosomen; test: Inhibition of noradrenaline reuptake in synaptosomes (Methode 4); assay type: biochemical, Ratte; conditions: 50 % inhibition of 14C-noradrenaline uptake, 37 °C, 4 min
Description: Synaptosomen aus Rattenhirn werden nach der Methode von Whittaker (Handbook of Neurochemistry 2 , 327-364, Editor A. Lajtha; London and New York, 1969) isoliert und die Monoamin-Aufnahme nach der Methode von Schacht und Heptner gemessen (Biochemical Pharmac. 23 , 3413-3422). Die 14C Noradrenalin-Aufnahme wurde in einem Krebs-Henseleit-Bikarbonatpuffer pH 7,4, der 11 Millimol Glucose enthielt, gemessen. 2,5 ml der Synaptosomen-Suspension wurden mit markiertem Noradrenalin bei 37 ° C inkubiert in Gegenwart von oder ohne Testsubstanz. Die Inkubationszeit betrug 4 Minuten. Die weitere Aufnahme wurde dann durch Abkühlen mit Eis gestoppt. Um nichtspezifische Adsorptionen auszuschließen, wurden Kontrollproben bei 0 ° C unter sonst gleichen Bedingungen inkubiert.
Die aufgenommenen Noradrenalinmengen wurden mit Hilfe der Membranfiltrationstechnik mit einem Millipore Sampling Manifold mit Cellulosenitratfiltern von 25 mm Durchmesser und 0,6 Mikrometer Porengröße gemessen. Die Synaptosomen wurden unter vermindertem Druck gesammelt und die Radioaktivität in einem Packard-Tricarb-Scintillationszähler bestimmt. Die Menge an angesammeltem Noradrenalin wurde angegeben als Prozent Radioaktivität, die zur Inkubationsmischung zugesetzt wurde.
Die ICso-Werte (inhibitory concentration) der nachstehenden Tabellen geben die Konzentrationen der Testsubstanzen an, welche die Aufnahme von ^14C-Noradrenalin zu 50 % hemmen.

[2] = system: Tiermodelle, prädiktiv für antidepressive Wirkung beim Menschen; test: General pharmacological testing in animal models predictive of antidepressant action in man; assay type: in vivo; conditions: result in words
Excerpt: Bei der pharmakologischen Untersuchung des (+)-Enantiomeren der Verbindung der Formel I wurden unerwartet starke Wirkungen dieser Substanz in Tiermodellen, die als prädiktiv für antidepressive Wirkung beim Menschen gelten, gefunden.
Die pharmakologischen Prüfungen wurden mit bekannten Modellen, die als prädiktiv für antidepressive Wirkung beim Menschen gelten, durchgeführt. Das sind beispielsweise: die Beeinflussung der Tetrabenazin-Ptosis bei der Maus und die Potenzierung der Yohimbin-Toxizität bei Mäusen. Als weiteres Beurteilungskriterium wurde beispielsweise die Prüfung der Auslösung von Stereotypien an Ratten herangezogen.

[3] = system: Tiermodelle, prädiktiv für antidepressive Wirkung beim Menschen; conditions: as named in Deutsche Patentanmeldung P 36 28 545.5; cited from earlier work
[4] = read-out: ED50, mg/kg p.o. (Vertrauensgrenzen), Methode 1, mouse, 30 min before tetrabenazine 40 mg/kg i.p., confidence limits in brackets, repeated determinations
[5] = Methode 1, mouse, p.o., 30 min before tetrabenazine 40 mg/kg i.p., confidence limits in brackets, repeated determinations, read-out: ED50, mg/kg p.o. (Vertrauensgrenzen)
[6] = Methode 1, mouse, 30 min before tetrabenazine 40 mg/kg i.p., confidence limits in brackets, repeated determinations

OC1(C(c2cccc(Cl)c2)n2ccnc2)C2CC3CC(C2)CC1C3 (stereo not drawn)
keine Stereotypien bis (Stereotypien): > 300 mg/kg | LD50, mg/kg p.o. (Yohimbin-Toxizität): 4,4 mg/kg

COc1ccc(C(n2ccnc2)C2(O)C3CC4CC(C3)CC2C4)cc1OC (stereo not drawn)
LD50, mg/kg p.o. (Yohimbin-Toxizität): 3,0 mg/kg | ED50 (Tetrabenazin-Ptosis; [4]): 3 mg/kg

OC1(C(c2ccc3ccccc3c2)n2ccnc2)C2CC3CC(C2)CC1C3 (stereo not drawn)
LD50, mg/kg p.o. (Yohimbin-Toxizität): 3,2 mg/kg | ED50 (Tetrabenazin-Ptosis; [4]): 3 mg/kg

OC(C(c1cccc(Cl)c1)n1ccnc1)C12CC3CC(CC(C3)C1)C2 (stereo not drawn)
keine Stereotypien bis (Stereotypien): > 30 mg/kg | LD50, mg/kg p.o. (Yohimbin-Toxizität): 8,5 mg/kg | ED50 (Tetrabenazin-Ptosis; [5]): 3.7 mg/kg

CC(C)(C)C(O)C(c1ccc(-c2ccccc2)cc1)n1ccnc1 (stereo not drawn)
pIC50 [1]: < 6.00 | keine Stereotypien bis (Stereotypien): > 30 mg/kg | LD50, mg/kg p.o. (Yohimbin-Toxizität): 5,3 mg/kg | ED50 (Tetrabenazin-Ptosis; [5]): 3 mg/kg

CCCC(C)(C)C(O)C(c1ccc(-c2ccccc2)cc1)n1ccnc1 (stereo not drawn)
keine Stereotypien bis (Stereotypien): keine Stereotypien | LD50, mg/kg p.o. (Yohimbin-Toxizität): 24,5 mg/kg

C=CCC1(C(O)C(c2cccc(Cl)c2)n2ccnc2)CCCCC1 (stereo not drawn)
ED50; mg/kg p.o. (Vertrauensgrenzen) (Tetrabenazin-Ptosis; [6]): 6,1 (0,5-72,9) mg/kg | ED50 (Tetrabenazin-Ptosis; [4]): 3.9 mg/kg

OC1(C(c2cccc(Cl)c2)n2ccnc2)C2CC3CC(C2)CC1C3 (single isomer, unassigned)
pIC50 [1]: 6.92 | keine Stereotypien bis (Stereotypien): > 30 mg/kg | LD50, mg/kg p.o. (Yohimbin-Toxizität): 8,5 (0,5-130) mg/kg | LD50, mg/kg p.o. (Yohimbin-Toxizität; 1080 min): 4,6 mg/kg | ED50; mg/kg p.o. (Vertrauensgrenzen) (Tetrabenazin-Ptosis; [6]): 2,3 (0,9-5,8) mg/kg | ED50 (Tetrabenazin-Ptosis; [4]): 2.9 mg/kg

OC1(C(c2cccc(Cl)c2)n2ccnc2)C2CC3CC(C2)CC1C3 (single isomer, unassigned; (+)) [(+)-(2-Hydroxy-2-adamantyl)-1-imidazolyl-(3-chlorphenyl)-methan]
pharmakologische Wirkung [2]: geringere Wirkung

Cc1cccc(C(n2ccnc2)C2(O)C3CC4CC(C3)CC2C4)c1 (single isomer, unassigned; (+)) [Beispiel 1]
keine Stereotypien bis (Stereotypien): keine Stereotypien bis 100 mg/kg p.o. | LD50, mg/kg p.o. (Yohimbin-Toxizität): 2,9 (0,2 - 41,3) mg/kg | LD50 umgerechnet (F:O,68) auf äquimolare Menge Base (nach Beispiel 2) (Yohimbin-Toxizität; p.o., tested as hydrogentartrate, converted to equimolar amount of base, 1080 min): 2,0 (0,1 - 28,1) mg/kg | ED50; mg/kg p.o. (Vertrauensgrenzen) (Tetrabenazin-Ptosis; [6]): 1,2 (0,3 - 3,5) mg/kg and 1,9 (1,0 - 3,5) mg/kg and 1,4 (0,7 - 2,7) mg/kg | ED50 (Tetrabenazin-Ptosis; [4]): 1.3 mg/kg and 1.75 mg/kg

Cc1cccc(C(n2ccnc2)C2(O)C3CC4CC(C3)CC2C4)c1 (single isomer, unassigned; enantiomere) [(-)-Enantiomere der Verbindung I]
pharmakologische Wirkung [2]: pharmakologisch unwirksam

Cc1cccc(C(n2ccnc2)C2(O)C3CC4CC(C3)CC2C4)c1 (stereo not drawn) [(2-Hydroxy-2-adamantyl)-1-imidazolyl-3-tolyl-methan]
antidepressive Wirkung in prädiktiven Tiermodellen [3]: antidepressiv wirksam

Cc1cccc(C(n2ccnc2)C2(O)C3CC4CC(C3)CC2C4)c1 (stereo not drawn) [drawing 18]
pIC50 [1]: 6.92 | keine Stereotypien bis (Stereotypien): > 30 mg/kg | LD50, mg/kg p.o. (Yohimbin-Toxizität): 7,1 mg/kg | ED50; mg/kg p.o. (Vertrauensgrenzen) (Tetrabenazin-Ptosis; [6]): 1,7 (0,5-5,9) mg/kg | ED50 (Tetrabenazin-Ptosis; [4]): 1.5 mg/kg
